These results are taken from patent US20260250312A1, “ANTIBACTERIAL COMPOUNDS ELIMINATING DORMANT BACTERIAL CELLS” (UNIVERSITÉ D'AIX-MARSEILLE, priority 2022, published 2026).

pIC50: −log10 of the molar value. ≈ marks a conversion by molar mass, not a printed value. Where “and” joins values, the source holds several entries; their conditions need not be identical. Equal values may be shown once. Read-outs that look alike come from different tables or passages of the source.

In experiment [1] the test system is Escherichia coli (ATCC28922). Briefly: Microdilution MIC assay (CLSI-based), E. coli. The format is cell-based. The conditions noted are these: 20 hours incubation at 35-37° C., MHB; for MIC: read-out: Minimum inhibitory concentration E. coli ATCC28922. As to the method:
(§1) The antibacterial activity of compounds was measured using a standard microdilution assay based on the Clinical and Laboratory Standards Institute (CLSI) guidelines. This method was slightly modified. Indeed, assay volumes were increased to 200 μL to improve reproducibility. The chemical compounds to be tested were in the form of salts for biological testing.
(§2) Bacteria tested: Antibacterial activities of the compounds were tested on Staphylococcus aureus (ATCC25923), Enterococcus faecalis (ATCC29212), Escherichia coli ([…]) and Pseudomonas aeruginosa (ATCC27853).
(§3) Preparation of the Preculture: Mueller Hinton Agar plates were inoculated with frozen biological strain in order to obtain separate colonies and the plates were incubated during 24 h at 35-37° C. 3 colonies of similar aspect were picked out, resuspended in 5 mL of fresh Mueller Hinton broth 1× (MHB) and incubated with shaking (160 rpm) at 35-37° C. overnight.
(§4) 0.1 mL of bacteria in exponential phase were suspended in 9.9 mL of MHB (1:100 dilution). 0.1 mL of the 1:100 dilution were dispensed into the wells of microplates containing 0.1 ml of serial compounds dilutions to yield ca. 5×10^5 CFU/mL. In parallel, the stocks solutions of chemical compounds were first diluted in appropriate solvent to a final concentration of 5 mg/mL. 8 μL were dispended into the first wells of the microplates containing 0.1 ml of sterile broth and a 0.5 cascade dilution was performed in MHB from 0.2 mg/mL. One control was made for each strain tested. […] Tests were performed in triplicate.
(§5) Reading of the Results: After incubation, the filter was replaced with a transparent film, and an optical density reading was then taken in an iEMS plate spectrophotometer at 620 nm. Calculation of the minimum inhibitory concentration (MIC) was performed.
On the technique in general: Broth dilution looks for growth in wells or tubes with falling amounts of substance.

Experiment [2] relates to Staphylococcus aureus (ATCC25923). Briefly: Microdilution MIC assay (CLSI-based), S. aureus. The format is cell-based. As to conditions: 20 hours incubation at 35-37° C., MHB; for MIC: read-out: Minimum inhibitory concentration S. aureus ATCC25923. As to the method:
as §1, §2, §3, §4, §5

Experiment [3] deals with Pseudomonas aeruginosa (ATCC27853). Briefly: Microdilution MIC assay (CLSI-based), P. aeruginosa. The class given is cell-based. The conditions noted are these: 20 hours incubation at 35-37° C., MHB; for MIC: read-out: Minimum inhibitory concentration P. aeruginosa ATCC27853. The protocol: as §1, §2, §3, §4, §5
The test system of the next experiment is CHO-K1 cells. Kind of experiment: WST1 cytotoxicity test. The class given is cell-based, Chinese hamster. As to conditions: WST1, 24 hours at 37° C.; for IC50: Cricetulus griseus, CHO-K1, 24 h. The text has this:
Cytotoxicity: The test WST1 was used to measure the cytotoxic activity of the compounds of the invention. The test WST1 is a colorimetric test allowing to measure the viability and the degree of cell proliferation. It is based on cleavage of the colorless tetrazolium salts WST-1 (4—[3-(4-iodophenyl)-2-(4-nitrophenyl)-2H-5-tetrazolio]-1,3-benzene disulfonate) with mitochondrial dehydrogenases to the yellow-colored formazan derivative, which may be quantified by spectrophotometry at 420-480 nm. The WST1 test was performed on Chinese hamster ovary (CHO) cells. The CHO-K1 cells (ATCC, USA) were kept in culture in McCoy's 5A medium supplemented with 10% fetal calf serum, 2 mM of L-glutamine and a mixture of penicillin-streptomycin (100 U/ml: 10 μg/mL). The culture was incubated at 37° C. under an atmosphere enriched in CO2 (5%), and subcultured every two days. The cells were transferred into 96-well plates (25,000 cells/mL) in whole McCoy's 5A medium, and maintained for 24 hours at 37° C. under a humid atmosphere enriched in CO2 (5%). Increasing concentrations of tested compounds were added to the wells, each compound was tested in replicates and 8 growth controls containing the cells in the medium alone were included in each series of tests. After 24 hours at 37° C. (5% CO2), the culture medium was removed, the cells were rinsed in phosphate buffer (PBS) and 50 μL of PBS containing 10% of reagent WST1 were added to each well. After 20 minutes of incubation at 37° C., the results were read by spectrophotometry at 450 nm. The results are expressed in dose-response relationships, modeled by nonlinear regression analysis using the TableCurve software.
Cytotoxicity: The same WST1 test as described in Example 2 above was used.
(Tetrazolium assays rely on reduction of a dye to a coloured formazan, in cell work by metabolically active cells.)

In experiment [4] the test system is Enterococcus faecalis (ATCC29212). Briefly: Microdilution MIC assay (CLSI-based), E. faecalis. The class given is cell-based. As to conditions: 20 hours incubation at 35-37° C., MHB; for MIC: read-out: Minimum inhibitory concentration E. faecalis ATCC29212. The protocol:
as §1, §2, §3, §4, §5

[5] abbreviates: Escherichia coli, ATCC28922, 20 h.
Setting [6] is: Staphylococcus aureus, ATCC25923, 20 h.
Setting [7] is: Pseudomonas aeruginosa, ATCC27853, 20 h.
[8] abbreviates: Enterococcus faecalis, ATCC29212, 20 h.

On to `COC(=O)[C@H](NC(=O)CC[C@@H](C)[C@H]1CCC2C3C(CC[C@@]21C)[C@@]1(C)CC[C@H](NCCCNCCCN)C[C@H]1C[C@H]3O)C(C)C` (stereo partly drawn) [Compound S007, methyl ((4R)-4-((3S,5S,7R,10S,13R,17R)-3-((3-((3-aminopropyl)amino)propyl)amino)-7-hydroxy-10,13-dimethylhexadecahydro-1H-cyclopenta[a]phenanthren-17-yl)pentanoyl)-D-valinate], for which, in experiment [1], the “Minimum inhibitory concentration E. coli ATCC28922” value came to 4 µg/mL (≈ 6.46 µM) and the MIC is 6.25 µM (≈ 3.87 µg/mL). In experiment [2], the “Minimum inhibitory concentration S. aureus ATCC25923” value was 8 µg/mL (≈ 12.9 µM) and the MIC is 12.5 µM (≈ 7.74 µg/mL). Further, in experiment [3], the “Minimum inhibitory concentration P. aeruginosa ATCC27853” value came to 16 µg/mL (≈ 25.9 µM) and the MIC amounted to 25 µM (≈ 15.5 µg/mL). The “IC50 CHO” value with CHO-K1 cells is 70.20 µg/mL (≈ 113 µM). Moreover, the pIC50 (usually the IC50 on a negative log10 scale, so that one unit is a factor of ten) in the experiment with CHO-K1 cells (read-out: IC50 CHO) was 3.95. Moreover, in experiment [4], the “Minimum inhibitory concentration E. faecalis ATCC29212” value stood at 8 µg/mL (≈ 12.9 µM) and the MIC was found to be 12.5 µM (≈ 7.74 µg/mL).
For the compound `COC(=O)[C@@H](NC(=O)CC[C@@H](C)[C@H]1CCC2C3C(CC[C@@]21C)[C@@]1(C)CC[C@H](NCCCN(C)CCCN)C[C@H]1C[C@H]3O)C(C)C` (stereo partly drawn) [Compound S026, methyl ((4R)-4-((3S,5S,7R,10S,13R,17R)-3-((3-((3-aminopropyl)(methyl)amino)propyl)amino)-7-hydroxy-10,13-dimethylhexadecahydro-1H-cyclopenta[a]phenanthren-17-yl)pentanoyl)-L-valinate], the MIC in experiment [1] (setting [5]) is 25 µM and 16 µg/mL; in experiment [2] (setting [6]), 25 µM and 16 µg/mL; in experiment [3] (setting [7]) it was 200 µM and 126 µg/mL; in experiment [4] (setting [8]), 50 µM and 32 µg/mL. Besides, in the experiment on CHO-K1 cells (read-out: IC50 CHO), the IC50 (as a rule, the midpoint of a concentration-inhibition curve) is 11.4 µM and 7.2 µg/mL.
In the case of `COC(=O)[C@@H](NC(=O)CC[C@@H](C)[C@H]1CCC2C3CC[C@@H]4C[C@@H](NCCCNCCCCNCCCN)CC[C@]4(C)C3CC[C@@]21C)C(C)C` (stereo partly drawn) [Compound S057, methyl ((4R)-4-((3S,5R,10S,13R,17R)-3-((3-((4-((3-aminopropyl)amino)butyl)amino)propyl)amino)-10,13-dimethylhexadecahydro-1H-cyclopenta[a]phenanthren-17-yl)pentanoyl)-L-valinate], the MIC in experiment [1] (setting [5]) is 3.12 µM and 2 µg/mL; in experiment [2] (setting [6]) it was 3.12 µM and 2 µg/mL; in experiment [3] (setting [7]), 6.25 µM and 4 µg/mL; in experiment [4] (setting [8]), 3.12 µM and 2 µg/mL. Also, in the experiment with CHO-K1 cells (read-out: IC50 CHO), the IC50 is 30.2 µM and 20.4 µg/mL.
On to `COC(=O)[C@@H](Cc1ccc(O)cc1)NC(=O)CC[C@@H](C)[C@H]1CCC2C3C(C[C@H](O)[C@@]21C)[C@@]1(C)CC[C@H](NCCCNCCCCNCCCN)C[C@H]1C[C@H]3O` (stereo partly drawn) [Compound S061, methyl ((4R)-4-((3S,5S,7R,10S,12S,13R,17R)-3-((3-((4-((3-aminopropyl)amino)butyl)amino)propyl)amino)-7,12-dihydroxy-10,13-dimethylhexadecahydro-1H-cyclopenta[a]phenanthren-17-yl)pentanoyl)-D-tyrosinate], for which the MIC is 100 µM and 64 µg/mL in experiment [1] (setting [5]); 6.25 µM and 4 µg/mL in experiment [2] (setting [6]); 100 µM and 64 µg/mL in experiment [3] (setting [7]); 100 µM and 64 µg/mL in experiment [4] (setting [8]). For the same compound, the IC50 in the experiment with CHO-K1 cells (read-out: IC50 CHO) was 6.85 µM and 5.17 µg/mL.
Take `COC(=O)[C@H](Cc1ccccc1)NC(=O)CC[C@@H](C)[C@H]1CCC2C3C(CC[C@@]21C)[C@@]1(C)CC[C@H](NCCCCN)C[C@H]1C[C@H]3O` (stereo partly drawn) [Compound S030, methyl ((4R)-4-((3S,5S,7R,10S,13R,17R)-3-((4-aminobutyl)amino)-7-hydroxy-10,13-dimethylhexadecahydro-1H-cyclopenta[a]phenanthren-17-yl)pentanoyl)-L-phenylalaninate]: the MIC in experiment [1] (setting [5]) was 50 µM and 32 µg/mL; in experiment [2] (setting [6]) it was 100 µM and 64 µg/mL; in experiment [3] (setting [7]), > 200 µM and > 124 µg/mL; in experiment [4] (setting [8]) it was 200 µM and 124 µg/mL. For the same compound, the IC50 in the experiment on CHO-K1 cells (read-out: IC50 CHO) is > 500 µM and > 311 µg/mL.
Consider `COC(=O)[C@H](Cc1ccccc1)NC(=O)CC[C@@H](C)[C@H]1CCC2C3C(CC[C@@]21C)[C@@]1(C)CC[C@H](NCCN)C[C@H]1C[C@H]3O` (stereo partly drawn) [Compound S015, methyl ((4R)-4-((3S,5S,7R,10S,13R,17R)-3-((2-aminoethyl)amino)-7-hydroxy-10,13-dimethylhexadecahydro-1H-cyclopenta[a]phenanthren-17-yl)pentanoyl)-L-phenylalaninate], for which the MIC in experiment [1] (setting [5]) was 12.5 µM and 8 µg/mL; in experiment [2] (setting [6]), 12.5 µM and 8 µg/mL; in experiment [3] (setting [7]) it was 50 µM and 32 µg/mL; in experiment [4] (setting [8]), 12.5 µM and 8 µg/mL. The IC50 in the experiment with CHO-K1 cells (read-out: IC50 CHO) was > 250 µM and > 149 µg/mL.
For `COC(=O)[C@H](C)NC(=O)CC[C@@H](C)[C@H]1CCC2C3C(CC[C@@]21C)[C@@]1(C)CC[C@H](NCCCNCCNCCCN)C[C@H]1C[C@H]3O` (stereo partly drawn) [Compound S034, methyl ((4R)-4-((3S,5S,7R,10S,13R,17R)-3-((3-((2-((3-aminopropyl)amino)ethyl)amino)propyl)amino)-7-hydroxy-10,13-dimethylhexadecahydro-1H-cyclopenta[a]phenanthren-17-yl)pentanoyl)-L-alaninate], the MIC in experiment [1] (setting [5]) was 50 µM and 32 µg/mL; in experiment [2] (setting [6]), 50 µM and 32 µg/mL; in experiment [3] (setting [7]), 100 µM and 64 µg/mL; in experiment [4] (setting [8]), 6.25 µM and 4 µg/mL. The IC50 with CHO-K1 cells (read-out: IC50 CHO) was 266 µM and 168 µg/mL.
Regarding `COC(=O)[C@H](Cc1ccc(O)cc1)NC(=O)CC[C@@H](C)[C@H]1CCC2C3C(CC[C@@]21C)[C@@]1(C)CC[C@H](NCCCNCCCN)C[C@H]1C[C@H]3O` (stereo partly drawn) [Compound S040, methyl ((4R)-4-((3S,5S,7R,10S,13R,17R)-3-((3-((3-aminopropyl)amino)propyl)amino)-7-hydroxy-10,13-dimethylhexadecahydro-1H-cyclopenta[a]phenanthren-17-yl)pentanoyl)-L-tyrosinate], the MIC in experiment [1] (setting [5]) was 50 µM and 32 µg/mL; in experiment [2] (setting [6]), 25 µM and 16 µg/mL; in experiment [3] (setting [7]), 50 µM and 32 µg/mL; in experiment [4] (setting [8]), 25 µM and 16 µg/mL. Further, in the experiment on CHO-K1 cells (read-out: IC50 CHO), the IC50 was 155 µM and 106 µg/mL.
